From ChEMBL document CHEMBL1201862, “PubChem BioAssay data set” (2004) come the findings set out here.

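Tested at 5 concentrations; 48 h exposure; 96-well plates; endpoints linearly interpolated, else capped at highest concentration. Abbreviation: GI50, concentration required for 50% inhibition of growth.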 Calls of active or inactive are those of the source. Rule as the data show it: active = GI50 up to about 1.1 µM and inactive = higher.

Among the test systems are SW-620; RXF 393; K562; Hs-578T; HCT-15; TK-10; MCF7; CAKI-1; 786-0; HOP-92; M14; MDA-N; COLO 205; OVCAR-8; HOP-62; SK-OV-3; A498; NCI-H226; IGROV-1; BT-549.
Holding throughout (assay): NCI tumour cell line growth inhibition, 48 h

Turning to `COc1ccc(C2CCc3c(cnc4nc(N)nc(N)c34)C2)cc1` (stereo not given), the GI50 in the assay with SW-620 is 5.25 µM (inactive); in the assay with RXF 393, 16.8 µM (inactive); with K562 it was 0.83 µM (active); in the assay on Hs-578T, 40.8 µM (inactive); in the assay with HCT-15, 5.15 µM; with TK-10, 12.8 µM (inactive). Moreover, the GI50 with MCF7 was 15.8 µM (inactive); in the assay on CAKI-1, > 100 µM (inactive); in the assay with 786-0 it was 3.7 µM (inactive); with HOP-92, 2.38 µM (inactive); in the assay on M14 it was 1.49 µM (inactive); with MDA-N, 1.04 µM (active). Further, the GI50 in the assay with COLO 205 is > 100 µM (inactive); in the assay with OVCAR-8, 5.4 µM (inactive); with HOP-62, 20.5 µM (inactive); in the assay on SK-OV-3 it was 18.1 µM (inactive); with A498, 38.4 µM (inactive); in the assay on NCI-H226, > 100 µM (inactive). The GI50 in the assay with IGROV-1 was 1.09 µM (active); with BT-549, 44.7 µM (inactive).
For `Cc1ccc(/N=N/c2ccc(O)c(CN(C)C)c2)cc1`, the GI50 in the assay on SW-620 was 20.7 µM (inactive); with RXF 393 it was 4.66 µM (inactive); in the assay on K562, 20 µM (inactive); in the assay on Hs-578T, 18.5 µM (inactive); in the assay with HCT-15, 20.6 µM; in the assay with TK-10, 21.7 µM (inactive). Further, the GI50 with MCF7 is 24.2 µM (inactive); in the assay with CAKI-1, 21.5 µM (inactive); with 786-0, 22.3 µM (inactive); with HOP-92, 12.6 µM (inactive); with M14, 21.9 µM (inactive); with MDA-N, 16.2 µM (inactive). For the same molecule, the GI50 is 17.7 µM (inactive) with COLO 205; 21.4 µM (inactive) with OVCAR-8; 12.6 µM (inactive) with HOP-62; 32.7 µM (inactive) in the assay with SK-OV-3; 19.1 µM (inactive) with A498; 20.9 µM (inactive) with NCI-H226. The values for the GI50 with IGROV-1 and with BT-549 were 15.1 µM (inactive) and 23.1 µM (inactive), respectively.
For the molecule `COc1cc2nc3c(=C(C#N)C#N)c4ccccc4n3c(=O)c2cc1OC`, the GI50 in the assay on SW-620 is > 100 µM (inactive); with RXF 393 it was > 100 µM (inactive); in the assay with K562, > 100 µM (inactive); with Hs-578T, 44.3 µM (inactive); in the assay on HCT-15 it was above 100 µM; in the assay on TK-10, > 100 µM (inactive). Besides, the GI50 was > 100 µM (inactive) in the assay with MCF7; > 100 µM (inactive) in the assay with CAKI-1; > 100 µM (inactive) in the assay on 786-0; 36.5 µM (inactive) in the assay with HOP-92; > 100 µM (inactive) with M14; > 100 µM (inactive) in the assay on MDA-N. Moreover, the GI50 with COLO 205, with OVCAR-8, in the assay on HOP-62, in the assay on SK-OV-3, in the assay on A498 and in the assay with NCI-H226 was > 100 µM (inactive) in each case. The GI50 in the assay on IGROV-1 and in the assay on BT-549 was > 100 µM (inactive) throughout.
As for `CCO/N=C\c1ccc2oc(-c3ccccc3)cc(=O)c2c1`, the GI50 with SW-620 is 0.129 µM (active); in the assay with RXF 393, 0.261 µM (active); in the assay on K562, 0.034 µM (active); in the assay with Hs-578T, 0.402 µM (active); with HCT-15, 0.0475 µM; in the assay with TK-10, 2.26 µM (inactive). The GI50 in the assay with MCF7 is 0.31 µM (active); with CAKI-1, 0.427 µM (active); in the assay on 786-0 it was 0.501 µM (active); with HOP-92, 3.26 µM (inactive); in the assay with M14, 0.172 µM (active); in the assay on MDA-N, 0.0143 µM (active). The GI50 in the assay with COLO 205 is 0.0506 µM (active); in the assay with OVCAR-8, 0.465 µM (active); in the assay on HOP-62, 0.46 µM (active); with SK-OV-3, 0.474 µM (active); with A498, 0.312 µM (active); in the assay with NCI-H226, 0.421 µM (active). Moreover, the GI50 in the assay with IGROV-1 was 0.24 µM (active); in the assay on BT-549, 1.06 µM (active).
For the molecule `O=C(/C(=C/c1cccs1)c1ccccc1)c1ccccc1`, the GI50 was > 100 µM (inactive) with SW-620; 4.99 µM (inactive) with RXF 393; > 100 µM (inactive) in the assay on K562; > 100 µM (inactive) in the assay on Hs-578T; above 100 µM in the assay on HCT-15; > 100 µM (inactive) in the assay on TK-10. For the same molecule, the GI50 in the assay with MCF7 was > 100 µM (inactive); with CAKI-1 it was > 100 µM (inactive); with 786-0, 26.2 µM (inactive); in the assay on HOP-92, > 100 µM (inactive); with M14, > 100 µM (inactive); with MDA-N, > 100 µM (inactive). Besides, the GI50 with COLO 205 is > 100 µM (inactive); in the assay with OVCAR-8, > 100 µM (inactive); with HOP-62, 7.21 µM (inactive); in the assay on SK-OV-3, > 100 µM (inactive); in the assay on A498, > 100 µM (inactive); with NCI-H226, > 100 µM (inactive). The GI50 with IGROV-1 and with BT-549 was > 100 µM (inactive) each time.
With `COc1ccc2c(c1)/C(=C\c1c(Cl)n(-c3ccccc3)c3ccccc13)C(=O)N2`, the GI50 was 4.75 µM (inactive) in the assay on SW-620; 2.45 µM (inactive) with RXF 393; 2.19 µM (inactive) in the assay with K562; 0.479 µM (active) in the assay with Hs-578T; 2.36 µM in the assay on HCT-15; 15.5 µM (inactive) with TK-10. The GI50 in the assay on MCF7 is 3.45 µM (inactive); in the assay on CAKI-1, 4.08 µM (inactive); in the assay with 786-0, 8.45 µM (inactive); in the assay on HOP-92 it was 2.08 µM (inactive); in the assay on M14, 3.2 µM (inactive); with MDA-N, 1.74 µM (inactive). For the same molecule, the GI50 is 3.61 µM (inactive) in the assay on COLO 205; 5.77 µM (inactive) in the assay with OVCAR-8; 12.2 µM (inactive) in the assay with HOP-62; 7.36 µM (inactive) in the assay with SK-OV-3; 5.27 µM (inactive) in the assay on A498; 2.28 µM (inactive) in the assay on NCI-H226. The values for the GI50 in the assay on IGROV-1 and in the assay with BT-549 were 4.12 µM (inactive) and 10.7 µM (inactive), respectively.
With `CC(=O)OCC1OC(O[C@@H]2C[C@H]3C(C)(C)[C@H](OC(C)=O)CC[C@]3(C)[C@H]3CC[C@@]45C[C@H](O)C[C@H](C)[C@@H]4CC=C5[C@@]32C)C(O)C(O)C1O` (stereo not given in full), the GI50 in the assay on SW-620 was 4.18 µM (inactive); in the assay with RXF 393 it was 2.11 µM (inactive); in the assay on K562, 2.61 µM (inactive); in the assay on Hs-578T, 4.6 µM (inactive); in the assay with HCT-15, 11.2 µM; in the assay with TK-10, 8.93 µM (inactive). Besides, the GI50 was 4.04 µM (inactive) in the assay with MCF7; 11.6 µM (inactive) in the assay on CAKI-1; 3.83 µM (inactive) with 786-0; 4.01 µM (inactive) in the assay on HOP-92; 4.06 µM (inactive) with M14; 3.61 µM (inactive) in the assay on MDA-N. The GI50 in the assay with COLO 205 was 1.82 µM (inactive); in the assay with OVCAR-8, 4.83 µM (inactive); in the assay on HOP-62, 9.53 µM (inactive); with SK-OV-3, 9.12 µM (inactive); in the assay with A498 it was 6.67 µM (inactive); in the assay with NCI-H226, 4.37 µM (inactive). Besides, the GI50 in the assay on IGROV-1 is 2.71 µM (inactive); with BT-549, 5.3 µM (inactive).
With `CN1CC(S(=O)(=O)c2ccccc2)CC(S(=O)(=O)c2ccccc2)C1c1ccccc1` (stereo not given), the GI50 was 8.3 µM (inactive) in the assay on SW-620; 14.9 µM (inactive) in the assay on RXF 393; 15 µM (inactive) with K562; 20.9 µM (inactive) in the assay on Hs-578T; 12.4 µM with HCT-15; 14.2 µM (inactive) with TK-10. Moreover, the GI50 with MCF7 was 12.4 µM (inactive); in the assay on CAKI-1, 10.8 µM (inactive); with 786-0, 12.2 µM (inactive); with HOP-92, 18.2 µM (inactive); in the assay with M14, 16.8 µM (inactive); in the assay on MDA-N it was 11.6 µM (inactive). The GI50 in the assay on COLO 205 was 13.6 µM (inactive); with OVCAR-8, 28.7 µM (inactive); in the assay on HOP-62, 20 µM (inactive); with SK-OV-3 it was 39.1 µM (inactive); with A498, 16.2 µM (inactive); in the assay with NCI-H226 it was 21.2 µM (inactive). Moreover, the GI50 with IGROV-1 is 25.9 µM (inactive); with BT-549, 11.7 µM (inactive).
In the case of `c1ccc2cc(CNCCCCNCCCNCc3ccc4ccccc4c3)ccc2c1`, the GI50 is 0.324 µM (active) with SW-620; 1.49 µM (inactive) in the assay with RXF 393; 0.259 µM (active) in the assay with K562; 0.167 µM (active) with Hs-578T; 0.824 µM in the assay with HCT-15; 1.75 µM (inactive) in the assay on TK-10. Also, the GI50 with MCF7 was 0.548 µM (active); in the assay with CAKI-1, 1.81 µM (inactive); with 786-0, 0.423 µM (active); in the assay with HOP-92, 1.56 µM (inactive); in the assay on M14 it was 1.33 µM (inactive); in the assay on MDA-N, 0.993 µM (active). For the same molecule, the GI50 with COLO 205 was 0.277 µM (active); in the assay on OVCAR-8, 1.69 µM (inactive); in the assay with HOP-62, 1.61 µM (inactive); in the assay on SK-OV-3, 1.76 µM (inactive); in the assay on A498, 1.99 µM (inactive); in the assay on NCI-H226, 1.17 µM (inactive). Besides, the GI50 was 0.585 µM (active) in the assay with IGROV-1 and 1.78 µM (inactive) in the assay with BT-549.
For `Cc1ccc(O)c(-c2csc(NCN3CCN(CNc4nc(-c5cc(C)ccc5O)cs4)CC3)n2)c1`, the GI50 is 77.3 µM (inactive) with SW-620; > 100 µM (inactive) in the assay on RXF 393; > 100 µM (inactive) in the assay on K562; > 100 µM (inactive) in the assay with Hs-578T; above 100 µM with HCT-15; > 100 µM (inactive) in the assay with TK-10. The GI50 in the assay with MCF7, in the assay on CAKI-1, in the assay on 786-0, in the assay on HOP-92, with M14 and with MDA-N was > 100 µM (inactive) throughout. The GI50 with COLO 205, in the assay with OVCAR-8, with HOP-62, in the assay with SK-OV-3, in the assay on A498 and in the assay on NCI-H226 was > 100 µM (inactive) each time. The GI50 in the assay on IGROV-1 and with BT-549 was > 100 µM (inactive) in each case.
